How the values were obtained:
Type in all cases: in vivo
Echinochloa crus-galli = assay: Pre-emergence herbicidal action, ECHCG; conditions: dosage 320 g/ha; for herbicidal activity ECHCG: scored visually after 3 weeks vs untreated controls (100% = plants have died)
How it was run: (§1)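 Sown pots (sandy loam) sprayed pre-emergence → greenhouse → visual rating at 3 weeks; % activity vs untreated control, 100% = dead.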

Setaria viridis = assay: Pre-emergence herbicidal action, SETVI; conditions: dosage 320 g/ha, scored visually after 3 weeks vs untreated controls (100% = plants have died)
How it was run: as §1

Polygonum convolvulus = assay: Post-emergence herbicidal action, POLCO; conditions: for herbicidal action POLCO: Dosage 80 g/ha
How it was run: (§2)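 One-leaf-stage weeds, raised from seed in greenhouse sandy loam, received a single foliar spray of compound as wettable powder or emulsion concentrate with 0.2% wetting agent added. Growth continued under optimal conditions for about 3 weeks before percent damage was scored by eye against controls.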

Stellaria media = assay: Post-emergence herbicidal action, STEME; parameters: key: % herbicidal action vs untreated; 100 = plants died, 0 = like control; conditions: for herbicidal action STEME: Dosage 80 g/ha
How it was run: as §2

Viola tricolor = assay: Post-emergence herbicidal action, VIOTR; parameters: key: % herbicidal action vs untreated; 100 = plants died, 0 = like control; conditions: for herbicidal action VIOTR: Dosage 80 g/ha; for Herbicidal action against VIOTR: post-emergence
How it was run: as §2

Structure (SMILES) | herbicidal activity ECHCG (Echinochloa crus-galli) | herbicidal activity SETVI (Setaria viridis) | herbicidal action POLCO (Polygonum convolvulus) | herbicidal action STEME (Stellaria media) | herbicidal action VIOTR (Viola tricolor) | Herbicidal action against POLCO (Polygonum convolvulus; post-emergence, dosage 80 g/ha) | Herbicidal action against STEME (Stellaria media; post-emergence, dosage 80 g/ha) | Herbicidal action against VIOTR (Viola tricolor; comparative experiment, 5 g of a.i./ha) | Herbicidal action against VIOTR (Viola tricolor; dosage 80 g/ha) | herbicidal action ECHCG (Echinochloa crus-galli)
Cc1c(C(=O)Nc2nnnn2C)ccc(C(F)(F)F)c1CS(C)(=O)=O [Example 1-85] | 100% | 100% | 80 | 100 | 100 | – | – | – | – | –
CSCc1c(C(F)F)ccc(C(=O)Nc2nnnn2C)c1C [Example 1-107, 4-(difluoromethyl)-2-methyl-3-[(methylsulfanyl)methyl]-N-(1-methyl-1H-tetrazol-5-yl)benzamide] | 100% | 100% | 90 | 100 | 100 | – | – | – | – | –
Cc1c(C(=O)Nc2nnnn2C)ccc(C(F)F)c1CS(C)(=O)=O [Example 1-109] | 90% | 100% | – | 100 | 100 | – | – | – | – | –
COc1c(C(=O)Nc2nnnn2C)ccc(C(F)(F)F)c1CSC [Example 1-134] | 100% | 100% | 90 | 100 | 100 | 80 | 90 | 100 | 100 | –
CSCc1c(C(F)(F)F)ccc(C(=O)Nc2nnnn2C)c1F [Example 1-242] | 100% | 100% | – | 100 | 100 | – | – | – | – | –
Cn1nnnc1NC(=O)c1ccc(C(F)(F)F)c(C[S+](C)[O-])c1F (stereo not drawn) [Example 1-243] | 100% | 100% | – | 100 | 100 | – | – | – | – | –
Cn1nnnc1NC(=O)c1ccc(C(F)(F)F)c(CS(C)(=O)=O)c1F [Example 1-244] | 100% | 100% | – | 100 | 100 | – | – | – | – | –
Cn1nnnc1NC(=O)c1ccc(C(F)(F)F)c(CS(C)(=O)=O)c1Br [Example 1-382, 2-bromo-3-[(methylsulfonyl)methyl]-N-(1-methyl-1H-tetrazol-5-yl)-4-(trifluoromethyl)benzamide] | 100% | 100% | 90 | 100 | 100 | – | – | – | – | –
Cn1nnnc1NC(=O)c1ccc(Cl)c(CS(C)(=O)=O)c1Cl [Example 1-561] | 100% | 100% | – | 100 | 100 | – | – | – | – | –
CCn1nnnc1NC(=O)c1ccc(S(C)(=O)=O)c(CS(C)(=O)=O)c1C [Example 2-39] | – | – | – | 100 | 100 | – | – | – | – | 90%
CCn1nnnc1NC(=O)c1ccc(C(F)(F)F)c(C[S+](C)[O-])c1OC (stereo not drawn) [Example 2-135] | 100% | 100% | 90 | 100 | 100 | – | – | – | – | –
CCn1nnnc1NC(=O)c1ccc(C(F)(F)F)c(CS(C)(=O)=O)c1OC [Example 2-136] | 100% | 80% | – | 100 | 100 | – | – | – | – | –
CCCn1nnnc1NC(=O)c1ccc(C(F)(F)F)c(CS(=O)(=O)CC)c1C [Example 3-88] | 100% | 100% | 90 | 100 | 100 | – | – | – | – | –
CCCn1nnnc1NC(=O)c1ccc(C(F)F)c(CSC)c1C [Example 3-107] | 100% | 100% | 90 | 80 | 100 | – | – | – | – | –

— patent US12492173B2, “Herbicidal substituted N-tetrazolyl aryl carboxamides” (Bayer Aktiengesellschaft, priority 2019, dated 2025)
